Source: article PMC10961089, “Epidermal growth factor receptor inhibition potentiates chemotherapeutics‐mediated sensitization of metastatic breast cancer stem cells” (Cancer Reports, 2024)

Legend:
[1] = system: CD24^−/CD44^+‐breast CSC populations; assay: Cell migration (chemotaxis), Boyden-Chamber assay, sorted cells; assay type: cell-based, human; conditions: sorted CD24^−/CD44^+ CSCs; Doxorubicin 0.01 μM + 1e 5 μM vs 10% FBS
Procedure: TNBC cell lines—MDA‐MB‐231, MDA‐MB‐468, and the sorted CD24^+‐breast cancer cells, and CD24^−/CD44^+‐breast CSC populations from MDA‐MB‐231 [6] were seeded at a density of 1 × 10^6 cells/well to evaluate their migratory potential by Boyden‐Chamber assay. […] At the end of the treatment period, the cells were plated at a density of 5 × 10^3 cells/well in the upper chamber of the Boyden chamber assembly and 10% FBS in the lower chamber was used as a chemoattractant. Separately, the cells in the upper chamber were treated with Doxorubicin (0.01–0.1 μM) alone or with the potential EGFR inhibitors (compounds—1c, 1e, 1g, 1h, 1j, and 1k (5 μM) based on their low IC50 values) or a commercial EGFR inhibitor, PD153035 (10 μM) and incubated for 4 h followed by fixation and staining as described previously.[28], [29]

[2] = system: CD24^−/CD44^+‐breast CSCs xenotransplanted tumors; assay: Preclinical orthotopic xenograft murine tumor model (tumor size, weight, H&E histology); assay type: in vivo, C57BL/6 mice
Procedure: Animal studies have been carried out with the prior approval of the Institutional Animal Ethics Committee (IICT/IAEC/025/2023). C57BL/6 female mice of age 6–8 weeks (N = 35) were initially immunosuppressed with cyclophosphamide (50 mg/kg of body weight, i.p) on alternate days for 2 weeks. For generating a preclinical orthotopic xenograft tumor model, 2 × 10^6 GFP expressing sorted stable CD24^+‐breast cancer cells and CD24^−/CD44^+‐breast CSCs were orthotopically xeno‐transplanted subcutaneously at the fourth mammary fat pad of immune‐suppressed mice (n = 5/group). Subsequently, intratumoral administration of Doxorubicin at a low dose (2.5 mg/kg of body weight), high dose (10 mg/kg of body weight), and/or combinatorial treatment of the potent EGFR inhibitor, compound 1e (50 mg/kg of body weight) or the commercial EGFR inhibitor, PD153035 (50 mg/kg of body weight) with a low dose of doxorubicin was performed to the palpable tumors of breast CSCs at day‐3 post‐transplantation.
Euthanization of mice was performed on day 14 post‐transplantation and tumor tissues were collected for histological and immunohistochemical analysis. Histological differences in tumor tissues were evaluated using hematoxylin and eosin staining (H&E).[28], [30]

[3] = system: CD24^−/CD44^+‐breast CSC population sorted from MDA‐MB‐231; assay: MTT assay in sorted breast CSC population; assay type: cell-based, human; conditions: doxorubicin 0.01 μM + 1e 5 μM vs doxorubicin 0.01 μM alone
Procedure: To evaluate the cytotoxicity profile of the potential EGFR inhibitors (compounds) against TNBC cell lines—MDA‐MB‐231, MDA‐MB‐468, and control cell line HEK293, cells were seeded at a cell density of 5 × 10^3 cells/well in complete medium onto 96‐well plates. Here, the non‐tumoral human embryonic kidney (HEK293) epithelial cells have been utilized as a control cell line to compare the IC50 values of the compounds between cancerous and non‐cancerous cell lines with a big therapeutic window. The use of HEK293 cells as compared to other non‐cancerous cell lines are easy to maintain in culture and the results obtained from HEK293 are highly reproducible and consistent.[27] Briefly, the cells were incubated at 37°C for 12 h to attain morphology. After 12 h, cells were serum starved by replacing the complete media with media containing 2% FBS to synchronize the cells. […] All the experiments were performed thrice and the IC50 values of the compounds and Doxorubicin were calculated using GraphPad Prism software version 9 (San Diego, CA, USA). Similarly, the percent inhibition of the sorted cell populations by chemotherapeutic drug, doxorubicin in the absence/presence of potent compound 1e or standard EGFR inhibitor, PD153035 was evaluated utilizing GraphPad Prism Version 9 (San Diego, CA, USA).

c1cncc(C(c2c[nH]c3ccccc23)c2c[nH]c3ccccc23)c1 [1e]
migratory potential [1]: significantly reduced | tumorigenicity (H&E histology) ([2]; 50 mg/kg + low dose doxorubicin 2.5 mg/kg, CSC xenograft): significant decrease | histopathological finding in tumor tissue ([2]; 50 mg/kg + low dose doxorubicin 2.5 mg/kg, CSC xenograft, day 14): no tumor mass | tumor size ([2]; intratumoral, 50 mg/kg + doxorubicin low dose 2.5 mg/kg vs low dose doxorubicin alone, CD24^−/CD44^+ CSC xenograft): significantly decreased | increase of percent inhibition of cell proliferation versus doxorubicin alone [3]: 6.1 folds
